What was measured:
C. deuterogattii R265 = test: Checkerboard titration assay; assay type: cell-based, Cryptococcus deuterogattii; details: 30° C., 48 hours
Method: (§1) Amphotericin B plus 5-flucytosine or fluconazole are combinations often used to treat cryptococcal meningitis. To investigate the synergy between eltrombopag and existing antifungal drugs or other drugs, a checkerboard titration assay was performed on Cryptococcus. Briefly, C. neoformans […] and C. deuterogattii […] cells were cultured overnight at 30° C. and then washed twice with double-distilled water. The cells were diluted to 10^3 cfu/mL with RPMI 1640 medium, and 100 μL of the cell suspension was added to each well of a 96-well polystyrene plate. […] After incubation at 30° C. for 48 hours, the growth of cells under different treatments was assessed by measuring the light absorbance at 600 nm (OD600). This assay allows the determination of fractional inhibitory concentration index (FICI): (MICcombined of drug A/MICalone of drug A)+(MICcombined of drug B/MICalone of drug B). After the checkerboard titration assay, the cells (3 μL) in the 96-well plate were transferred to drug-free YPD agar plates. After incubation at 30° C. for 48 hours, the agar plates were photographed and assessed for cell viability.

C. neoformans H99 [1] = test: XTT-reduction assay of biofilm metabolic activity; assay type: cell-based, Cryptococcus neoformans; details: at respective MICs (1 mg/L amphotericin B, 4 mg/L fluconazole), 24 hours
Method: Cryptococcus biofilms, which are composed of Cryptococcus cells and extracellular matrix, enhance the tolerance of Cryptococcus to antifungal agents (such as amphotericin B) and host defense mechanisms. To assess whether eltrombopag impacts biofilm formation in Cryptococcus, an XTT-reduction assay was used to measure the metabolic activity of C. neoformans cells treated with eltrombopag at 37° C. Briefly, C. neoformans […] cells were cultured in YPD medium at 30° C. overnight. The cells were washed twice with phosphate buffered saline (PBS) and resuspended in RPMI 1640 medium with or without eltrombopag at the indicated concentrations. The cell suspension (0.0005 OD600/mL) was added to a 96-well polystyrene plate and incubated at 37° C. for 24 or 48 hours. […] After incubation, the cells were washed three times with PBS and subjected to XTT reduction assay to quantify formazan formation by measuring the light absorbance at 492 nm. The experiments were performed in triplicate, and the results were presented as mean±standard deviation. Statistical significance for the data sets was determined using a two-tailed t test.

C. neoformans H99 [2] = test: Checkerboard titration assay; assay type: cell-based, Cryptococcus neoformans; details: 30° C., 48 hours
Method: as §1

MICalone (C. deuterogattii R265) [mg/L] | MICcombined of AMB (C. deuterogattii R265; AMB in combination with ETP) [mg/L] | MICalone (C. neoformans H99 [2]) [mg/L] | MICcombined of AMB (C. neoformans H99 [2]; AMB in combination with ETP) [mg/L] | MICcombined of FK506 (C. deuterogattii R265; FK506 in combination with ETP) [mg/L] | MICcombined of FK506 (C. neoformans H99 [2]; FK506 in combination with ETP) [mg/L] | MICcombined of FLC (C. deuterogattii R265; FLC in combination with ETP) [mg/L] | MICcombined of FLC (C. neoformans H99 [2]; FLC in combination with ETP) [mg/L] | Compound | reducing the metabolic activity of C. neoformans biofilms, compared with eltrombopag (C. neoformans H99 [1])
1 | 1 | 1 | 0.5 | – | – | – | – | C[C@@H]1[C@H](O)[C@@H](C)/C=C/C=C/C=C/C=C/C=C/C=C/C=C/[C@H](O[C@@H]2O[C@H](C)[C@@H](O)[C@H](N)[C@@H]2O)C[C@@H]2O[C@](O)(C[C@@H](O)C[C@@H](O)[C@H](O)CC[C@@H](O)C[C@@H](O)CC(=O)O[C@H]1C)C[C@H](O)[C@H]2C(=O)O [AMB, amphotericin B] | less effective than eltrombopag
>16 | – | >16 | – | 0.25 | 0.25 | – | – | C=CC[C@@H]1/C=C(\C)C[C@H](C)C[C@H](OC)[C@H]2O[C@@](O)(C(=O)C(=O)N3CCCC[C@H]3C(=O)O[C@H](/C(C)=C/[C@@H]3CC[C@@H](O)[C@H](OC)C3)[C@H](C)[C@@H](O)CC1=O)[C@H](C)C[C@@H]2OC [FK506, tacrolimus] | –
16 | – | 4 | – | – | – | 16 | 8 | OC(Cn1cncn1)(Cn1cncn1)c1ccc(F)cc1F [FLC, fluconazole] | less effective than eltrombopag
